Source: PubChem BioAssay (NCI)
“And” between values parts separate entries of the source, which are not always exact repeats. Equal entries are not always repeated.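 Briefly, cells in 96-well plates were exposed to five compound concentrations for 48 h, and endpoints were estimated by linear interpolation. Here, GI50 denotes the concentration required for 50% inhibition of growth. TGI denotes the concentration required for complete inhibition of growth.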

test system: SN12C renal; assay: NCI-60 cell line screen, 48 h

Point of comparison: `Cn1nccc1Nc1nccc(-c2ccn([C@H](CO)c3ccc(Cl)c(F)c3)c(=O)c2)n1`, GI50 10 µM. Against it:
- COC(=O)OC1C(O[C@H]2C[C@H]3[C@@H]4CC=C5C[C@@H](O)CC[C@]5(C)[C@H]4CC[C@]3(C)[C@H]2[C@H](C)C(=O)CCC(C)C)OCC(O)C1OC1OCC(O)C(O)C1OC(=O)c1ccc(OC)cc1 (stereo partly drawn) — 6.8-fold lower, 1.46 µM
- O=C1/C(=C/c2ccc(Cl)c(Cl)c2)CN(C(=O)CCN2CCC(=NO)CC2)C/C1=C\c1ccc(Cl)c(Cl)c1 — 17-fold lower, 0.597 µM
- CCN(CC)CCCNc1ccc(C)c2sc3ccccc3c(=O)c12 — 9.2-fold lower, 1.09 µM
- CCNc1nc(O)c(/C=C2\C=Nc3ncccc32)s1 — 2.8-fold lower, 3.58 µM
- O=C(/C=C/C12c3ccccc3C(c3ccccc31)C1C(=O)NC(=O)C12)c1ccccn1 (stereo not drawn) — 6.8-fold lower, 1.48 µM

Point of comparison: `CCNc1nc(O)c(/C=C2\C=Nc3ncccc32)s1`, TGI 37.5 µM. Against it:
- Cn1nccc1Nc1nccc(-c2ccn([C@H](CO)c3ccc(Cl)c(F)c3)c(=O)c2)n1 — higher, > 100 µM
- COC(=O)OC1C(O[C@H]2C[C@H]3[C@@H]4CC=C5C[C@@H](O)CC[C@]5(C)[C@H]4CC[C@]3(C)[C@H]2[C@H](C)C(=O)CCC(C)C)OCC(O)C1OC1OCC(O)C(O)C1OC(=O)c1ccc(OC)cc1 (stereo partly drawn) — not separable, > 27.5 µM
- O=C1/C(=C\c2ccccc2)CN(C(=O)CCN2CCCCC2)C/C1=C/c1ccccc1 — 15-fold lower, 2.48 µM
- O=C1/C(=C/c2ccc(Cl)c(Cl)c2)CN(C(=O)CCN2CCC(=NO)CC2)C/C1=C\c1ccc(Cl)c(Cl)c1 — 22-fold lower, 1.73 µM
- CCN(CC)CCCNc1ccc(C)c2sc3ccccc3c(=O)c12 — 5-fold lower, 7.51 µM
- O=C(/C=C/C12c3ccccc3C(c3ccccc31)C1C(=O)NC(=O)C12)c1ccccn1 (stereo not drawn) — 11-fold lower, 3.44 µM
- CC1=C(C(=O)Nc2ccccc2)C(c2ccc(N(C)C)cc2)C(C(=O)Nc2ccccc2)=C(C)N1 — higher, > 100 µM

test system: UO-31 renal; assay: NCI-60 cell line screen, 48 h

Point of comparison: `c1ccc(-c2[nH]ncc2-c2ccnc(-c3ccc(OCCn4ccnc4)cc3)c2)nc1`, GI50 6.57 µM. Against it:
- COc1cc2c(N3CCN(C(=O)Nc4ccc(OC(C)C)cc4)CC3)ncnc2cc1OCCCN1CCCCC1 — 2.3-fold higher, 15.2 µM
- O=C(OCc1ccc2c(Br)cc(Br)c(O)c2n1)c1cc2ccccc2[nH]1 — 16-fold lower, 0.406 µM
- CC(C)(CO)CNC(=O)c1ccc2[nH]c(O)c(N=Nc3ccc(S(N)(=O)=O)cc3)c2c1 — higher, > 25 µM
- N#CC1(c2ccc(NC(=O)c3cccnc3NCc3ccncc3)cc2)CCCC1 — 1.9-fold higher, 12.6 µM
- CCN1C(=S)N(CC)C2C1NC(=S)N2/N=C/C=C/c1ccccc1OC (stereo not drawn) — 11-fold lower, 0.621 µM
- Cn1nccc1Nc1nccc(-c2ccn([C@H](CO)c3ccc(Cl)c(F)c3)c(=O)c2)n1 — 3.8-fold higher, 24.7 µM
- COC(=O)OC1C(O[C@H]2C[C@H]3[C@@H]4CC=C5C[C@@H](O)CC[C@]5(C)[C@H]4CC[C@]3(C)[C@H]2[C@H](C)C(=O)CCC(C)C)OCC(O)C1OC1OCC(O)C(O)C1OC(=O)c1ccc(OC)cc1 (stereo partly drawn) — 390-fold lower, 0.017 µM
- O=C1/C(=C/c2ccc(Cl)c(Cl)c2)CN(C(=O)CCN2CCC(=NO)CC2)C/C1=C\c1ccc(Cl)c(Cl)c1 — 10-fold lower, 0.654 µM
- CCN(CC)CCCNc1ccc(C)c2sc3ccccc3c(=O)c12 — 13-fold lower, 0.514 µM
- CCNc1nc(O)c(/C=C2\C=Nc3ncccc32)s1 — 1.9-fold lower, 3.44 µM
- O=C(/C=C/C12c3ccccc3C(c3ccccc31)C1C(=O)NC(=O)C12)c1ccccn1 (stereo not drawn) — 5-fold lower, 1.32 µM

Point of comparison: `O=C1/C(=C\c2ccccc2)CN(C(=O)CCN2CCCCC2)C/C1=C/c1ccccc1`, TGI 4.56 µM. Against it:
- COc1cc2c(N3CCN(C(=O)Nc4ccc(OC(C)C)cc4)CC3)ncnc2cc1OCCCN1CCCCC1 — 8.9-fold higher, 40.7 µM
- c1ccc(-c2[nH]ncc2-c2ccnc(-c3ccc(OCCn4ccnc4)cc3)c2)nc1 — higher, > 25 µM
- O=C(OCc1ccc2c(Br)cc(Br)c(O)c2n1)c1cc2ccccc2[nH]1 — 3.8-fold lower, 1.19 µM
- CC(C)(CO)CNC(=O)c1ccc2[nH]c(O)c(N=Nc3ccc(S(N)(=O)=O)cc3)c2c1 — higher, > 25 µM
- N#CC1(c2ccc(NC(=O)c3cccnc3NCc3ccncc3)cc2)CCCC1 — 13-fold higher, 60.7 µM
- CCN1C(=S)N(CC)C2C1NC(=S)N2/N=C/C=C/c1ccccc1OC (stereo not drawn) — higher, > 93 µM
- Cn1nccc1Nc1nccc(-c2ccn([C@H](CO)c3ccc(Cl)c(F)c3)c(=O)c2)n1 — higher, > 100 µM
- COC(=O)OC1C(O[C@H]2C[C@H]3[C@@H]4CC=C5C[C@@H](O)CC[C@]5(C)[C@H]4CC[C@]3(C)[C@H]2[C@H](C)C(=O)CCC(C)C)OCC(O)C1OC1OCC(O)C(O)C1OC(=O)c1ccc(OC)cc1 (stereo partly drawn) — 51-fold lower, 0.0898 µM
- O=C1/C(=C/c2ccc(Cl)c(Cl)c2)CN(C(=O)CCN2CCC(=NO)CC2)C/C1=C\c1ccc(Cl)c(Cl)c1 — 3.4-fold lower, 1.34 µM
- CCN(CC)CCCNc1ccc(C)c2sc3ccccc3c(=O)c12 — 2.2-fold lower, 2.07 µM
- CCNc1nc(O)c(/C=C2\C=Nc3ncccc32)s1 — higher, > 100 µM
- O=C(/C=C/C12c3ccccc3C(c3ccccc31)C1C(=O)NC(=O)C12)c1ccccn1 (stereo not drawn) — 1.7-fold lower, 2.74 µM
- CC1=C(C(=O)Nc2ccccc2)C(c2ccc(N(C)C)cc2)C(C(=O)Nc2ccccc2)=C(C)N1 — 14-fold higher, 65.4 µM

In the case of `Cc1cc(O)c2c(c1)C(=O)C=CC2=O`, the TGI is reported as 11.4 µM and 16.2 µM.

test system: OVCAR-8 ovarian; assay: NCI-60 cell line screen, 48 h

Point of comparison: `N#CC1(c2ccc(NC(=O)c3cccnc3NCc3ccncc3)cc2)CCCC1`, GI50 21.1 µM. Against it:
- COc1cc2c(N3CCN(C(=O)Nc4ccc(OC(C)C)cc4)CC3)ncnc2cc1OCCCN1CCCCC1 — within 1.5-fold, 20.9 µM
- c1ccc(-c2[nH]ncc2-c2ccnc(-c3ccc(OCCn4ccnc4)cc3)c2)nc1 — within 1.5-fold, 14.4 µM
- O=C(OCc1ccc2c(Br)cc(Br)c(O)c2n1)c1cc2ccccc2[nH]1 — 25-fold lower, 0.829 µM
- CC(C)(CO)CNC(=O)c1ccc2[nH]c(O)c(N=Nc3ccc(S(N)(=O)=O)cc3)c2c1 — higher, > 25 µM
- CCN1C(=S)N(CC)C2C1NC(=S)N2/N=C/C=C/c1ccccc1OC (stereo not drawn) — 39-fold lower, 0.538 µM
- Cn1nccc1Nc1nccc(-c2ccn([C@H](CO)c3ccc(Cl)c(F)c3)c(=O)c2)n1 — 3.2-fold lower, 6.56 µM
- COC(=O)OC1C(O[C@H]2C[C@H]3[C@@H]4CC=C5C[C@@H](O)CC[C@]5(C)[C@H]4CC[C@]3(C)[C@H]2[C@H](C)C(=O)CCC(C)C)OCC(O)C1OC1OCC(O)C(O)C1OC(=O)c1ccc(OC)cc1 (stereo partly drawn) — 6.7-fold lower, 3.17 µM
- O=C1/C(=C/c2ccc(Cl)c(Cl)c2)CN(C(=O)CCN2CCC(=NO)CC2)C/C1=C\c1ccc(Cl)c(Cl)c1 — 32-fold lower, 0.651 µM
- CCN(CC)CCCNc1ccc(C)c2sc3ccccc3c(=O)c12 — 15-fold lower, 1.41 µM
- CCNc1nc(O)c(/C=C2\C=Nc3ncccc32)s1 — 6.5-fold lower, 3.27 µM
- O=C(/C=C/C12c3ccccc3C(c3ccccc31)C1C(=O)NC(=O)C12)c1ccccn1 (stereo not drawn) — 12-fold lower, 1.8 µM

Point of comparison: `CCN(CC)CCCNc1ccc(C)c2sc3ccccc3c(=O)c12`, TGI 3.26 µM. Against it:
- COc1cc2c(N3CCN(C(=O)Nc4ccc(OC(C)C)cc4)CC3)ncnc2cc1OCCCN1CCCCC1 — 30-fold higher, 99.2 µM
- c1ccc(-c2[nH]ncc2-c2ccnc(-c3ccc(OCCn4ccnc4)cc3)c2)nc1 — higher, > 25 µM
- O=C(OCc1ccc2c(Br)cc(Br)c(O)c2n1)c1cc2ccccc2[nH]1 — within 1.5-fold, 2.82 µM
- CC(C)(CO)CNC(=O)c1ccc2[nH]c(O)c(N=Nc3ccc(S(N)(=O)=O)cc3)c2c1 — higher, > 25 µM
- N#CC1(c2ccc(NC(=O)c3cccnc3NCc3ccncc3)cc2)CCCC1 — higher, > 83.3 µM
- CCN1C(=S)N(CC)C2C1NC(=S)N2/N=C/C=C/c1ccccc1OC (stereo not drawn) — higher, > 41.2 µM
- Cn1nccc1Nc1nccc(-c2ccn([C@H](CO)c3ccc(Cl)c(F)c3)c(=O)c2)n1 — higher, > 100 µM
- COC(=O)OC1C(O[C@H]2C[C@H]3[C@@H]4CC=C5C[C@@H](O)CC[C@]5(C)[C@H]4CC[C@]3(C)[C@H]2[C@H](C)C(=O)CCC(C)C)OCC(O)C1OC1OCC(O)C(O)C1OC(=O)c1ccc(OC)cc1 (stereo partly drawn) — higher, > 27.5 µM
- O=C1/C(=C\c2ccccc2)CN(C(=O)CCN2CCCCC2)C/C1=C/c1ccccc1 — 1.7-fold higher, 5.47 µM
- O=C1/C(=C/c2ccc(Cl)c(Cl)c2)CN(C(=O)CCN2CCC(=NO)CC2)C/C1=C\c1ccc(Cl)c(Cl)c1 — within 1.5-fold, 2.62 µM
- CCNc1nc(O)c(/C=C2\C=Nc3ncccc32)s1 — higher, > 100 µM
- O=C(/C=C/C12c3ccccc3C(c3ccccc31)C1C(=O)NC(=O)C12)c1ccccn1 (stereo not drawn) — 1.7-fold higher, 5.54 µM

For `Cc1cc(O)c2c(c1)C(=O)C=CC2=O`, the GI50 was 14.1 µM and 4.75 µM.

With `Cc1cc(O)c2c(c1)C(=O)C=CC2=O` the TGI was 43.9 µM and 14.8 µM.
